TGI and GI50 data for 30 molecules are collected here from PubChem BioAssay (NCI).

Common to all, as to test: DTP human tumour cell line panel, 48 h
For test [1], the system named is HCT-116 colon.
Test [2] concerns M14 melanoma.
Test [3] has as its system NCI-H460 lung.
The test system of test [4] is OVCAR-4 ovarian.
The test system of test [5] is OVCAR-5 ovarian.
Test [6] relates to SF-539 CNS.
Test [7] relates to SK-OV-3 ovarian.
In test [8] the test system is SR leukemia.
In test [9] the test system is DU-145 prostate.

Each structure is given as a SMILES string.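 Compound exposure: 48 hours, 5 concentrations, 96-well plates. GI50 is the concentration that inhibits growth by half. Definition used: TGI = concentration required for complete inhibition of growth.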

For `CC1=C(O)c2cn(C)cc2C(=O)C1=O`, the concentration for total growth inhibition (TGI) in test [1], in test [2], in test [3], in [4], in [5] and in test [6] was above 100 µM in each case. Moreover, the TGI in test [7] and in [8] was above 100 µM throughout.
On to `N.N.NCCCCCN.O=C([O-])CCl.O=C([O-])CCl.O=C([O-])CCl.O=C([O-])CCl.[Pt+4].[Pt+4]`, for which the GI50 in test [1] is 10800 nM; in test [2] it was 9280 nM; in test [3], 316 nM; in test [4], 10.2 µM; in test [5], 5540 nM; in test [6] it was 3080 nM. Moreover, the GI50 in test [7] is 8010 nM; in test [8], 1730 nM. Besides, the concentration for total growth inhibition (TGI) is above 100 µM in test [1]; 33.5 µM in [2]; 18.6 µM in test [3]; 48.3 µM in test [4]; 48.9 µM in [5]; 19.8 µM in [6]. The total growth inhibition concentration (TGI) in test [7] turned out to be 48.1 µM; in [8] it was 16.8 µM.
Regarding `O=c1cc(-c2ccccc2)oc2ccc(OC/C(=N/O)c3ccccc3)cc12`, the GI50 was 1730 nM in test [9]; 3110 nM in [1]; above 50000 nM in test [2]; 1970 nM in test [3]; 29 µM in test [4]; 43800 nM in test [5]. Moreover, the GI50 in test [6] was 1390 nM; in test [7], 1100 nM; in test [8], 1730 nM. The concentration for total growth inhibition (TGI) in test [9] was above 50 µM; in [1], above 50 µM; in test [2] it was above 50 µM; in test [3], 16.9 µM; in test [4], above 50 µM; in test [5] it was above 50 µM. Also, the TGI in test [6] was 2.93 µM; in test [7], 16.2 µM; in test [8], above 50 µM.
For the molecule `COc1ccccc1NC(=O)C1=C(C)NC(C)=C(C(=O)Nc2ccccc2OC)C1C1=CC=COC1`, the total growth inhibition concentration (TGI) in test [1] is 17.2 µM; in test [2], 22.5 µM; in test [3], 16.3 µM; in [4], above 100 µM; in [5], above 100 µM; in [6], 30.7 µM. This molecule also gave a total growth inhibition concentration (TGI) in test [7] of 71.2 µM.
On to `Oc1ccc([Te]CCNCC[Te]c2ccc(O)cc2)cc1`, for which the total growth inhibition concentration (TGI) in test [1] was 28.4 µM; in [2], 55.3 µM; in [3], 33.9 µM; in test [5], 37.7 µM; in test [7], 98.9 µM; in [8] it was above 100 µM.
Consider `COC(=O)CCC(NC(=S)N/N=C/c1ccccn1)C(=O)OC` (stereo not given), for which the TGI in test [1], in test [2], in [3], in [4], in [5] and in [6] was above 100 µM each time. The concentration for total growth inhibition (TGI) in test [7] and in test [8] was above 100 µM throughout.
With `CC1=Nc2ccccc2NC(c2ccoc2)C1` (stereo not given), the TGI in test [1], in test [2], in test [3], in test [4], in test [5] and in test [6] was above 100 µM in each case. Also, the total growth inhibition concentration (TGI) in [7] and in test [8] was above 100 µM throughout.
Take `COc1c(C)cc(O)cc1C=O`: the TGI in test [2], in test [3], in test [4], in test [5], in test [6] and in test [7] was above 100 µM in each case.
With `COC(=O)C(=O)C(C(=O)C(=O)Nc1cccc(C(C)=O)c1)c1nc2ccc([N+](=O)[O-])cc2[nH]c1=O` (stereo not given), the concentration for total growth inhibition (TGI) in test [1], in test [2], in [3], in test [4], in test [5] and in [6] was above 100 µM throughout. Moreover, the TGI in [7] and in test [8] was above 100 µM each time.
Regarding `O=C1CC(c2c(-c3ccccc3)[nH]c3ccccc23)C(=O)N1` (stereo not given), the TGI in test [1], in [2], in test [3], in test [4], in test [5] and in test [6] was above 100 µM in each case. In test [7], the TGI was above 100 µM.
With `c1ccc([CH2][Sn]([CH2]c2ccccc2)([O]c2cccc3cccnc23)[O]c2cccc3cccnc23)cc1`, the GI50 in test [1] was 211 nM; in test [2], 460 nM; in [3] it was 207 nM; in test [4], 0.184 µM; in test [5], 338 nM; in [6] it was 248 nM. Besides, in test [7], the GI50 was 492 nM. Also, the TGI stood at 1.19 µM in test [1]; 1.75 µM in [2]; 0.446 µM in [3]; 0.374 µM in [4]; 1.06 µM in test [5]; 0.677 µM in test [6]. Further, in [7], the TGI was determined as 1.57 µM.
As to `COC(=O)C1=Cc2cc(OC)c(OC)c(OC)c2[C@H](c2cc(OC)c(OC)c(OC)c2)C1C(=O)OC` (stereo not given in full), the concentration for total growth inhibition (TGI) in test [1], in test [2], in test [3], in test [4], in test [5] and in [6] was above 100 µM throughout. The same molecule came in with a TGI in test [7] above 100 µM.
Take `CC(=O)Nc1ccc(/C=c2\sc3nnc(CCC(=O)Nc4ccccc4Cl)n3c2=O)cc1`: the total growth inhibition concentration (TGI) in test [1] was above 100 µM; in [2] it was 35.8 µM; in test [3] it was above 10 µM; in [4], 43 µM; in test [5] it was above 100 µM; in [6] it was 58 µM. For the same molecule, the TGI is above 100 µM in test [7] and 43.2 µM in test [8].
`COc1ccc(C(CCC(C)=O)C(=O)O)cc1OC` (stereo not given): the TGI in [1], in [3], in test [4], in test [5], in [6] and in test [8] was above 100 µM each time.
In the case of `C=C=C(C(=O)OC)S(=O)c1ccccc1[N+](=O)[O-]` (stereo not given), the concentration for total growth inhibition (TGI) in [1], in test [2], in test [3], in test [4], in [5] and in test [6] was above 100 µM in each case. The molecule further displayed a TGI in [7] above 100 µM.
In the case of `COc1cccc2ccc(C(=O)c3ccccc3)nc12`, the TGI in test [1], in test [2], in test [4], in test [5], in test [6] and in test [8] was above 100 µM each time.
As for `COc1ccc2c(c1)[n+]([O-])c(-c1ccc([N+](=O)[O-])cc1)c(N)[n+]2[O-]`, the total growth inhibition concentration (TGI) in test [1], in test [2], in test [3], in test [4], in [5] and in [6] was above 100 µM in each case. The concentration for total growth inhibition (TGI) in test [7] and in test [8] was above 100 µM each time.
As to `CN1C(=O)CCC2[C@@H]3CC=C4C[C@@H](O)CC[C@]4(C)C3CC[C@@]21C` (stereo not given in full), the concentration for total growth inhibition (TGI) in [1], in test [2], in test [3], in test [4], in [5] and in test [6] was above 100 µM in each case. The molecule also registered a concentration for total growth inhibition (TGI) in test [7] above 100 µM.
`CN(C)c1ccc(/C=C/C(=O)[O-])cc1.CN(C)c1ccc(/C=C/C(=O)[O-])cc1.[Cu+2]`: the TGI was above 100 µM in [1]; above 100 µM in test [2]; above 100 µM in test [3]; above 100 µM in [4]; 60.3 µM in test [5]; above 100 µM in [6]. The TGI in test [7] was above 95 µM. For the same molecule, the GI50 in test [4] is 14.9 µM.
As to `NCCCNc1nc2ccccc2c2c(=O)c3cc(F)cc(F)c3sc12`, the GI50 in test [9] is 1710 nM; in [1] it was 1670 nM; in test [2], 1790 nM; in [3], 1580 nM; in test [4] it was 1.75 µM; in [5], 1600 nM. The GI50 in test [6] is 1770 nM. Also, the concentration for total growth inhibition (TGI) in [9] was determined as 3.19 µM; in test [1], 3.28 µM; in test [2], 3.3 µM; in [3], 3.14 µM; in test [4] it was 3.61 µM; in [5], 3.03 µM. This molecule also had a TGI in test [6] of 3.24 µM.
`COC1OC(CO)C(O)C(OC(C)=O)C1NC(=O)N(CCCl)N=O` (stereo not given): the total growth inhibition concentration (TGI) in test [1], in [2], in test [3], in test [4], in test [5] and in test [6] was above 100 µM in each case. Besides, the TGI in test [7] was above 100 µM.
For the molecule `O=[N+]([O-])c1ccc(C2CC(c3ccccc3Cl)=Nc3ccccc3S2)cc1` (stereo not given), the TGI in test [1] was determined as 4.92 µM; in [2], 29.4 µM; in [3] it was 45.1 µM; in test [4], 24.5 µM; in test [5], 62.7 µM; in test [6] it was 17.7 µM. Moreover, the concentration for total growth inhibition (TGI) in test [7] was above 85.3 µM; in test [8], 5.27 µM.
For the molecule `Cc1cc([N+](=O)[O-])ccc1Sc1c2ccccc2nc2cc(Cl)ccc12`, the concentration for total growth inhibition (TGI) in test [1] was 63.8 µM; in [2] it was above 100 µM; in test [3], above 100 µM; in test [4], above 100 µM; in test [5], above 100 µM; in test [6] it was 57.6 µM. Moreover, the concentration for total growth inhibition (TGI) in test [7] and in test [8] was above 100 µM throughout.
As to `COc1ccc(OC(C)=O)c2c1CCC=CC2=O`, the TGI in [1] was 34.3 µM; in test [2], 19.7 µM; in test [3], 34.7 µM; in [4], 36.1 µM; in [5], 31 µM; in [6], 30.9 µM. Also, the concentration for total growth inhibition (TGI) in test [7] was 31.2 µM; in [8] it was 40.3 µM.
Consider `Nc1c(-c2cn(Cc3ccccc3)c3ccccc23)[n+]([O-])c2ccccc2[n+]1[O-]`, for which the TGI in test [2] is 74.3 µM; in [3], above 100 µM; in test [4], above 100 µM; in [5], above 100 µM; in [7], 95.3 µM.
In the case of `O=C1/C(=N\O)c2ccccc2S1(=O)=O`, the TGI in [1], in test [2], in [3], in test [4], in test [5] and in test [6] was above 100 µM in each case. The TGI in test [7] and in [8] was above 100 µM in each case.
For the molecule `C#CCNC(=O)N(CC#C)N=O`, the total growth inhibition concentration (TGI) in [1], in [2], in [3], in [4], in test [5] and in test [6] was above 100 µM in each case. In [7], this molecule showed a concentration for total growth inhibition (TGI) above 100 µM.
Consider `CCN(CC)CC(C)(C)C(=O)/C=C/c1cccc(/C=C/C(=O)C(C)(C)CN(CC)CC)c1`, for which the TGI in test [1] was 1.24 µM; in test [2], 2.82 µM; in [3] it was 2.31 µM; in [4], 1.41 µM; in test [5], 2.98 µM; in test [6], 2.27 µM. Also, the values for the total growth inhibition concentration (TGI) in test [7] and in test [8] were 2.79 µM and 1.68 µM, respectively.
In the case of `CCOC(=O)C1SC(=Nc2cccc(Cl)c2C)N=C1C` (stereo not given), the TGI in test [1] was 58.1 µM; in test [3], above 100 µM; in test [4], 89.5 µM; in test [5], 41.9 µM; in test [6] it was 74 µM; in test [8], 61.2 µM.
Regarding `NC1=CC(=O)c2cccnc2C1=O`, the GI50 is 1580 nM in [9]; 1450 nM in test [1]; 1700 nM in test [2]; 1230 nM in test [3]; 1.3 µM in test [4]; 2050 nM in test [5]. Besides, the GI50 in [6] was 1620 nM; in test [7], 4260 nM; in test [8], 729 nM. Moreover, the concentration for total growth inhibition (TGI) in [9] worked out at 2.97 µM; in test [1], 3.36 µM; in test [2], 3.24 µM; in test [3], 3.25 µM; in test [4], 2.78 µM; in [5], 4.72 µM. Also, the concentration for total growth inhibition (TGI) stood at 3 µM in [6], 17.8 µM in test [7] and 3.69 µM in test [8].
